In PubChem BioAssay AID1963423 (Molecular Pharmacology Branch, DTP, NCI, 2024):

Test system: 439559-082-T-J2-PDC complex spheroid growth
Experiment: Anticancer human tumor 439559-082-T-J2-PDC patient-derived colon adenocarcinoma cell line growth inhibition [Asc]
Conditions: for IC50: curve of first compound; for viability, T/C: stronger effect = lower value
How it was run: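 Complex solid-tumor spheroids incorporating human endothelial and mesenchymal stem cells received single agents or combinations over half-log dilution ranges anchored to clinical Cmax.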

[1] = second compound 0.03 µM, first compound 0.0316 µM
[2] = second compound 0.03 µM, first compound 0.1 µM
[3] = second compound 0.03 µM, first compound 0.316 µM
[4] = second compound 0.03 µM, first compound 1 µM
[5] = second compound 0.0949 µM, first compound 0.0316 µM
[6] = second compound 0.0949 µM, first compound 0.1 µM
[7] = second compound 0.0949 µM, first compound 0.316 µM
[8] = second compound 0.0949 µM, first compound 1 µM
[9] = second compound 0.3 µM, first compound 0.0316 µM
[10] = second compound 0.3 µM, first compound 0.1 µM
[11] = second compound 0.3 µM, first compound 0.316 µM
[12] = second compound 0.3 µM, first compound 1 µM
[13] = second compound 0.949 µM, first compound 0.0316 µM
[14] = second compound 0.949 µM, first compound 0.1 µM
[15] = second compound 0.949 µM, first compound 0.316 µM
[16] = second compound 0.949 µM, first compound 1 µM
[17] = second compound 3 µM, first compound 0.0316 µM
[18] = second compound 3 µM, first compound 0.1 µM
[19] = second compound 3 µM, first compound 0.316 µM
[20] = second compound 3 µM, first compound 1 µM
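Note: spheroids exposed to agents for 7 days starting day 3 after seeding.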
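Throughout, for viability, T/C: percent of DMSO vehicle control viability with 100% = vehicle.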

IC50 (second compound 0.03 µM) | IC50 (second compound 0.0949 µM) | IC50 (second compound 0.3 µM) | IC50 (second compound 0.949 µM) | IC50 (second compound 3 µM) | SMILES | viability, T/C [1] | viability, T/C [2] | viability, T/C [3] | viability, T/C [4] | viability, T/C [5] | viability, T/C [6] | viability, T/C [7] | viability, T/C [8] | viability, T/C [9] | viability, T/C [10] | viability, T/C [11] | viability, T/C [12] | viability, T/C [13] | viability, T/C [14] | viability, T/C [15] | also measured
6.63 µM | 5.8 µM | 6.3 µM | 6.35 µM | 5.12 µM | C=C(F)C(=O)N1CCN(c2nc(OCC3CCCN3C)nc3c2CCN(c2cccc4cccc(Cl)c24)C3)CC1CC#N (stereo not given) + CCN1C(C(=O)NC23CCC(C(=O)O)(CC2)CC3)C(c2cccc(Cl)c2F)C2(C(=O)Nc3cc(Cl)ccc32)C12CCCCC2 | 102% | 96.2% | 116% | 93% | 109% | 112% | 107% | 96.7% | 92% | 113% | 103% | 90.5% | 104% | 103% | 105% | viability, T/C (second compound 0.03 µM, first compound 3.16 µM): 92.1%; viability, T/C (second compound 0.03 µM, first compound 10 µM): 27%; viability, T/C (second compound 0.0949 µM, first compound 3.16 µM): 82.8%; viability, T/C (second compound 0.0949 µM, first compound 10 µM): 22.3%; viability, T/C (second compound 0.3 µM, first compound 3.16 µM): 85%; viability, T/C (second compound 0.3 µM, first compound 10 µM): 27.5%; viability, T/C [16]: 98.2%; viability, T/C (second compound 0.949 µM, first compound 3.16 µM): 85.7%; viability, T/C (second compound 0.949 µM, first compound 10 µM): 26.7%; viability, T/C [17]: 88.3%; viability, T/C [18]: 102%; viability, T/C [19]: 96.3%; viability, T/C [20]: 84.5%; viability, T/C (second compound 3 µM, first compound 3.16 µM): 80.2%; viability, T/C (second compound 3 µM, first compound 10 µM): 10.2%
> 1 µM | > 1 µM | > 1 µM | > 1 µM | > 1 µM | CCN1CCN(Cc2ccc(Nc3ncc(F)c(-c4cc(F)c5nc(C)n(C(C)C)c5c4)n3)nc2)CC1 + CCN1C(C(=O)NC23CCC(C(=O)O)(CC2)CC3)C(c2cccc(Cl)c2F)C2(C(=O)Nc3cc(Cl)ccc32)C12CCCCC2 | 94.4% | 88.9% | 85.7% | 83% | 98.8% | 80.7% | 94% | 84.8% | 115% | 87.2% | 86.8% | 85% | 114% | 93.5% | 96.7% | viability, T/C (second compound 0.03 µM, first compound 0.00316 µM): 107%; viability, T/C (second compound 0.03 µM, first compound 0.01 µM): 105%; viability, T/C (second compound 0.0949 µM, first compound 0.00316 µM): 104%; viability, T/C (second compound 0.0949 µM, first compound 0.01 µM): 107%; viability, T/C (second compound 0.3 µM, first compound 0.00316 µM): 99.1%; viability, T/C (second compound 0.3 µM, first compound 0.01 µM): 106%; viability, T/C (second compound 0.949 µM, first compound 0.00316 µM): 99.2%; viability, T/C (second compound 0.949 µM, first compound 0.01 µM): 102%; viability, T/C [16]: 90%; viability, T/C (second compound 3 µM, first compound 0.00316 µM): 87.5%; viability, T/C (second compound 3 µM, first compound 0.01 µM): 94%; viability, T/C [17]: 105%; viability, T/C [18]: 80.7%; viability, T/C [19]: 87%; viability, T/C [20]: 84.7%
